According to patent publication US8883763B2 (Universite Joseph Fourier, priority 2010, dated 2014):

What was measured:
bovine brain tubulin = assay: In vitro tubulin polymerization test (turbidimetry at 350 nm); type: biochemical; conditions: molecules at 50 μM, calculated at t=3000 s, DMSO control = 100%
Outline: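 Bovine brain tubulin was assembled at 37 °C in BRB80 (80 mM K-PIPES pH 6.8, 1 mM MgCl2, 1 mM EGTA) with 1 mM GTP. The 50 μM tests used compounds at 50 μM, run in triplicate. Turbidity at 350 nm was read at t=3000 s and expressed relative to control taken as 100%.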

HMEC cells = assay: Proliferation of HMEC cells (GI50); type: cell-based; conditions: Homo sapiens, 120 h, 50 μM to 1 nM for 5 days
Outline: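 Cells seeded at 1,000/well (10% confluence) and exposed 5 days (120 h) to compound from 1 nM up to 50–100 μM. Live cells counted by Hoechst 33342 staining under fluorescence microscopy; GI50 is concentration halving proliferation versus control, mean of two triplicate experiments.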

HeLa cells = assay: Phase contrast video microscopy of HeLa cells (mitosis duration, blebbing); type: cell-based, human; conditions: 0.5 μM
Method: The cells were filmed over 48 hours (image acquisition every 5 minutes) with a Neofluar 40× objective (Zeiss).
The values of FIG. 10A are averages±SEM of two experiments in which 50 mitotic cells were monitored.
For z-series video microscopy, HeLa cells were cultured in glass-bottomed dishes (Iwaki, Milian # BY-3910035). The system comprises: an AXIOVERT 200M inverted microscope (Zeiss®), a thermostated incubation chamber which maintains a temperature of 37° C. and a constant CO2 level of 5%, a motorized platform and a CoolSNAP HQ camera (Roper Scientifics®) coupled with the Metamorph acquisition and analysis system (Universal Imaging™ Corporation). The studies were carried out with ×20 or ×40 objectives (Neofluar Zeiss).
Initially, the acquisition fields were chosen and stored in the memory, then the acquisition parameters were defined, such as the duration of the experiment (48 hours), the interval between the image captures (5 minutes), or the number of sections at depth z (9 sections). At the end of 48 hours of recording, the acquisition batteries were reconstituted with the image at z having the same focus, using the Metamorph software.

[1] = tested on: primary human fibroblasts; assay: Indirect immunofluorescence on primary human fibroblasts; type: cell-based; conditions: 5 and 10 μM for 24 hours
Method: Primary human fibroblasts (PHFs) were prepared from newborn foreskins as described in (Nahm W K et al., J Dermatol Sci. 2002, 28(2): pp 152-8).
The cells were cultured on slides in 24-well plates and incubated for 24 hours with molecule 6 at different concentrations from 1 to 10 μM.
Corresponding quantities of DMSO were added to the culture medium in the control wells.
The cells were fixed in a solution of PBS with 4% paraformaldehyde (PFA) and 0.1% glutaraldehyde (GA), for 15 minutes and centrifuged at 300 g for the last 10 minutes of the fixing. The slides were rinsed in PBS and the free aldehyde groups were reduced by two successive 5-minute incubations in PBS containing 1 mg/ml of NaBH4.
After one washing with PBS then another with PBST (PBS with 0.5% triton-X-100), the cells are incubated for 30 minutes at ambient temperature with anti α-tubulin monoclonal antibody solution (DM1A clone, Sigma # T6199) diluted to 1:200 in PBST. […] After 3 10-minute washings in PBST, the slides are mounted on plates in Fluorsave™ mounting medium (Calbiochem #345789) and are observed and analyzed using an Axiovert 200M inverted fluorescence microscope (Zeiss®). […]

[2] = In vivo toxicity in nude mice (weight, maximum tolerated oral dose); conditions: 200 mg/kg per os twice weekly over 2 months, 63 days
Method: FIG. 14 presents the change in the weight of nude mice over 63 days. The mice received an administration of compound 6 (200 mg/kg) per os twice weekly over 2 months.
Compound 6 was dissolved at 8 mg/ml in a 60 mg/ml aqueous solution of beta-cyclodextrin (vehicle).
For the in vivo experiments, molecule 6 (8 mg/ml) was prepared in 60 mg/ml of β-cyclodextrin (Sigma #4805) dissolved in water and vortexed.
(§1) All the animal experiments were carried out according to the recommendations of the local ethics commmittee. Nude mice (NCr-nu/nu females (Harlan Laboratories), were housed in a room with filtered air at 22° C., alternating 12 hours of day and 12 hours of night.
(§2) The mice received compound 6 per os in doses and at intervals described in the captions to the figures. The control mice received the vehicle alone (identical volume of beta-cyclodextrin at 60 mg/ml))

[3] = tested on: human tumours (HTB-177: pulmonary carcinoma) xenografted onto nude mice; assay: HTB-177 tumour xenograft in nude mice, necrosis and histology; type: in vivo
Method: as §1
HTB177 cells (1×10^6) were implanted sub-cutaneously in the flanks of the mice. The tumour growth was monitored twice weekly by measuring the size of the tumours with a slide caliper, thus making it possible to estimate the volume of the tumour, calculated in mm^3 according to the following formula: length×width×height×π/6.
Treatment commenced when the tumours reached a size of approximately 250 mm^3. The weight of the animal, the volume of the tumour and the extension of the necroses were measured twice weekly.
The animals were sacrificed when the tumour reached 2000 mm^3 or sooner if a clinical sign of suffering, defined by the ethics committee, was observed.
as §2
After euthanasia of the animals, the tumours were removed, cut sagittally along the median line, frozen rapidly in nitrogen liquid and stored at −80° C. […]

COc1ccc(-c2[nH]c(=O)c3cc(OC)ccc3c2[N+](=O)[O-])cc1 [Compound 6, 7-methoxy-3-(4-methoxyphenyl)-4-nitroisoquinoline-1(2H)-one]
Tubulin polymerization inhibition (bovine brain tubulin): + ((+) signifies that the molecule induces tubulin assembly inhibition in vitro comprised between 6 and 25% of the DMSO control.)
GI50 (HMEC cells): ≤ 0.1 µM
membrane phenotype of HeLa cells (interphase and mitosis), phase contrast (HeLa cells; 3 hours): cortical blebbings
mitotic arrest of HeLa cells, phase contrast over 24 hours (HeLa cells; 24 hours): accumulation of rounded HeLa cells
mitotic cells remaining rounded (HeLa cells; HeLa cells in mitosis): 20%
mitotic cells showing intense blebbing (HeLa cells; HeLa cells in mitosis): 80%
duration of the mitosis of HeLa cells (HeLa cells; 1 hour under control conditions): 22 h
phenotype on microtubules and actin cytoskeleton, primary human fibroblasts in interphase [1]: depolymerization of the microtubules and a reorganization of the actin cytoskeleton
phenotype on microtubules and actin cytoskeleton, primary human fibroblasts in mitosis [1]: depolymerization of the spindle microtubules and the formation of ectopic furrows
effect on the weight of nude mice [2]: no significant effect
tumour necrosis (macroscopic) ([3]; 40 mg/kg twice weekly per os, after one cycle of administration (day 7)): central necrosis
necrosis on H&E-stained tumour sections ([3]; 48 hours after administration of 40 mg/kg): extensive areas of necrosis
